Source: patent publication US12606795B2 (Thankcome Biological Science and Technology (SuZhou) Co., …, priority 2023, dated 2026)
Marks after values point to notes of the source that are not given here.

Tests used:
[1] = Tolerance to artificial gastric juice; format: physicochemical; settings: artificial gastric juice pH 2.0, 37° C., at 240 min
Protocol: Gastric juice ([…], 2 g/L NaCl, and 3.2 g/L pepsin, pH 2.0) and intestinal juice (6.8 g/L KH2 PO4, 10 g/L trypsin, and 0.1M NaOH, pH 8.0) were prepared, and then the gastric juice and the intestinal juice were filtered and sterilized using 0.22 μm sterile filter. […] The bacterial cells were washed twice with sterile saline and resuspended in 5 mL saline. A bacterial solution was mixed well with the sterile artificial gastric or intestinal juice in 1:1 (v/v). The mixture was shaken well, and then was placed in a constant-temperature incubator and culture was performed at 37° C.

SPF Kunming mice = test: Acute toxicity in mice; format: in vivo; settings: for Granulocyte number GR# / Granulocyte percentage GR % / Hematocrit HCT / Hemoglobin HGB / Lymphocyte number Lym# / Lymphocyte percentage Lym % / Mean corpuscular hemoglobin MCH / Mean corpuscular volume MCV / Mean corpuscular-hemoglobin concentration MCHC / Mean platelet volume MPV / Middle cell number Mid# / Middle cell percentage Mid % / Platelet distribution PDW / Platelet-large cell count PLCC / Platelet-large cell ratio PLCR / Plateletcrit PCT / Platelets PLT / Red blood cell distribution width coefficient of variation RDW_CV / Red blood cell distribution width standard deviation RDW_SD / Red blood cells RBC / While blood cells WBC: acute toxicity
Protocol: The groups were recorded as a sodium chloride solution group, a low dosage group, a medium dosage group and a high dosage group, respectively, and the general conditions and the body weight were observed per day within 7 to 10 d. At the end of the experimental period, blood samples were collected for hematological and serum biochemical analysis (refer to Embodiment 4). A histopathological examination of major organs and tissue was performed on all animals in each group (refer to Embodiment 4).

mice = test: Subchronic toxicity experiment, 90 d; format: in vivo
Protocol: Animals were randomly divided into four groups: group 1 (half male and half female) (saline, 0 CFU/kg. bw/d), group 2 (half male and half female) (9.2×10^8 CFU/kg. bw/d), group 3 (half female and half male) ([…]), and group 4 (half male and half female) (92×10^8 CFU/kg. bw/d). A new bacterial suspension was prepared per day. The bacterial suspension was intragastrically administrated orally for 90 consecutive days at a dosage volume of 5 mL/kg. bw. Clinical signs were recorded per day, and detailed clinical observation was conducted once a week. The body weight, the food consumption, and the water intake were recorded once a week. At the end of the experimental period, blood samples were collected for hematological and serum biochemical analysis (refer to Embodiment 4). An autopsy was conducted on all animals, and the weight of main organs was recorded. A histopathological examination was performed on the major organs and tissue of all the animals in each group (refer to Embodiment 4). […]
Determination of blood glucose: In a certain time interval after administration, at 0, 15, 30, 60, 90 and 120 min, the tail venous blood of the mouse was taken, and the blood glucose level of the mouse was measured using a blood glucose meter measurement method. […]

[2] = tested on: APP/PS1 double transgenic mice; test: Alzheimer's disease in APP/PS1 double transgenic mice; format: in vivo; settings: 1*10^9 CFU/mouse/d 30 d
[3] = high dosage 5×10^11 CFU/d intragastric for 1 d
[4] = low dosage 1×10^9 CFU/d intragastric for 1 d
[5] = medium dosage 5×10^10 CFU/d intragastric for 1 d

Akkermansia muciniphila [AKK PROBIO]
survival rate in gastric juice [1]: around 85% | pathological sections of livers and kidneys (SPF Kunming mice; acute): no significant pathological injury | death (SPF Kunming mice; acute intragastric administration, high, medium and low dosage (5×10^11, 5×10^10, 1×10^9 CFU/d)): no death occurs | Granulocyte number GR# (SPF Kunming mice; [3]): 0 ± 0 10^9/L | Granulocyte percentage GR % (SPF Kunming mice; [3]): 0 ± 0% | Hematocrit HCT (SPF Kunming mice; [3]): 7.35 ± 2.76% | Hemoglobin HGB (SPF Kunming mice; [3]): 110.00 g/L | Lymphocyte number Lym# (SPF Kunming mice; [3]): 0.54 ± 0.37 10^9/L | Lymphocyte percentage Lym % (SPF Kunming mice; [3]): 100 ± 0% | Mean corpuscular hemoglobin MCH (SPF Kunming mice; [3]): 81.55 pg | Mean corpuscular volume MCV (SPF Kunming mice; [3]): 52.60 fL | Mean corpuscular-hemoglobin concentration MCHC (SPF Kunming mice; [3]): 1579.00 g/L | Mean platelet volume MPV (SPF Kunming mice; [3]): 9.20 ± 0.71 fL | Middle cell number Mid# (SPF Kunming mice; [3]): 0 ± 0 10^9/L | Middle cell percentage Mid % (SPF Kunming mice; [3]): 0 ± 0% | Platelet distribution PDW (SPF Kunming mice; [3]): 21.00% | Platelet-large cell count PLCC (SPF Kunming mice; [3]): 218.50 ± 10^9/L | Platelet-large cell ratio PLCR (SPF Kunming mice; [3]): 19.70% | Plateletcrit PCT (SPF Kunming mice; [3]): 1.04 ± 0.40% | Platelets PLT (SPF Kunming mice; [3]): 1112.50 ± 10^9/L | Red blood cell distribution width coefficient of variation RDW_CV (SPF Kunming mice; [3]): 13.75% | Red blood cell distribution width standard deviation RDW_SD (SPF Kunming mice; [3]): 92.55 fL | Red blood cells RBC (SPF Kunming mice; [3]): 1.38 ± 0.35 10^12/L | While blood cells WBC (SPF Kunming mice; [3]): 0.54 ± 0.37 10^9/L | Granulocyte number GR# (SPF Kunming mice; [4]): 0.05 ± 10^9/L | Granulocyte percentage GR % (SPF Kunming mice; [4]): 3.8% | Hematocrit HCT (SPF Kunming mice; [4]): 11.70% | Hemoglobin HGB (SPF Kunming mice; [4]): 87.50 g/L | Lymphocyte number Lym# (SPF Kunming mice; [4]): 0.82 ± 10^9/L | Lymphocyte percentage Lym % (SPF Kunming mice; [4]): 95.55% | Mean corpuscular hemoglobin MCH (SPF Kunming mice; [4]): 45.35 pg | Mean corpuscular volume MCV (SPF Kunming mice; [4]): 55.90 fL | Mean corpuscular-hemoglobin concentration MCHC (SPF Kunming mice; [4]): 802.00 g/L | Mean platelet volume MPV (SPF Kunming mice; [4]): 9.55 fL | Middle cell number Mid# (SPF Kunming mice; [4]): 0.01 ± 10^9/L | Middle cell percentage Mid % (SPF Kunming mice; [4]): 0.65% | Platelet distribution PDW (SPF Kunming mice; [4]): 19.10% | Platelet-large cell count PLCC (SPF Kunming mice; [4]): 273.50 ± 10^9/L | Platelet-large cell ratio PLCR (SPF Kunming mice; [4]): 27.65% | Plateletcrit PCT (SPF Kunming mice; [4]): 0.89% | Platelets PLT (SPF Kunming mice; [4]): 921.00 ± 10^9/L | Red blood cell distribution width coefficient of variation RDW_CV (SPF Kunming mice; [4]): 14.85% | Red blood cell distribution width standard deviation RDW_SD (SPF Kunming mice; [4]): 76.40 fL | Red blood cells RBC (SPF Kunming mice; [4]): 2.12 ± 10^12/L | While blood cells WBC (SPF Kunming mice; [4]): 0.88 ± 10^9/L | Granulocyte number GR# (SPF Kunming mice; [5]): 0.06 ± 10^9/L | Granulocyte percentage GR % (SPF Kunming mice; [5]): 4.20 ± 5.94% | Hematocrit HCT (SPF Kunming mice; [5]): 11.70% | Hemoglobin HGB (SPF Kunming mice; [5]): 96.00 g/L | Lymphocyte number Lym# (SPF Kunming mice; [5]): 0.99 ± 10^9/L | Lymphocyte percentage Lym % (SPF Kunming mice; [5]): 95.20% | Mean corpuscular hemoglobin MCH (SPF Kunming mice; [5]): 49.20 pg | Mean corpuscular volume MCV (SPF Kunming mice; [5]): 53.05 fL | Mean corpuscular-hemoglobin concentration MCHC (SPF Kunming mice; [5]): 892.00 g/L | Mean platelet volume MPV (SPF Kunming mice; [5]): 9.15 ± 0.78 fL | Middle cell number Mid# (SPF Kunming mice; [5]): 0.01 ± 10^9/L | Middle cell percentage Mid % (SPF Kunming mice; [5]): 0.60% | Platelet distribution PDW (SPF Kunming mice; [5]): 20.15% | Platelet-large cell count PLCC (SPF Kunming mice; [5]): 158.50 ± 10^9/L | Platelet-large cell ratio PLCR (SPF Kunming mice; [5]): 18.00% | Plateletcrit PCT (SPF Kunming mice; [5]): 0.84 ± 0.54% | Platelets PLT (SPF Kunming mice; [5]): 891.50 ± 10^9/L | Red blood cell distribution width coefficient of variation RDW_CV (SPF Kunming mice; [5]): 13.05% | Red blood cell distribution width standard deviation RDW_SD (SPF Kunming mice; [5]): 73.40 fL | Red blood cells RBC (SPF Kunming mice; [5]): 2.28 ± 10^12/L | While blood cells WBC (SPF Kunming mice; [5]): 1.06 ± 10^9/L | weight of major organs (organ indices) (SPF Kunming mice; acute, heart, liver, spleen, kidneys, thymus, brain, testes, lungs, stomach, intestine, vs control group): substantially no significant difference | activity of glutamic oxalacetic transaminase (GOT) in both serum and liver (SPF Kunming mice; acute, vs control group): no significant difference | activity of glutamic pyruvate transaminase (GPT) in both serum and liver (SPF Kunming mice; acute, vs control group): no significant difference | concentration of blood urea nitrogen (BUN) in serum (SPF Kunming mice; acute, vs control group): no significant difference | content of creatinine (GRE) in serum (SPF Kunming mice; acute, vs control group): no significant difference | level of glucose (GLU) in both serum and liver (SPF Kunming mice; acute, vs control group): no significant difference | level of the bile acid in both serum and liver (SPF Kunming mice; acute, vs control group): no significant difference | level of the cholesterol in both serum and liver (SPF Kunming mice; acute, vs control group): no significant difference | level of total protein (TP) in both serum and liver (SPF Kunming mice; acute, vs control group): no significant difference | level of the triglyceride in serum (SPF Kunming mice; acute, vs control mice): no significant difference | changes of blood glucose per day (SPF Kunming mice; acute, vs control saline group): no significant difference | changes of body weight per day (SPF Kunming mice; acute, vs control saline group): no significant difference | changes of food intake per day (SPF Kunming mice; acute, vs control saline group): no significant difference | level of triglyceride in the liver (SPF Kunming mice; acute, vs control saline group): significantly lower | various blood indicators (SPF Kunming mice; acute, vs control saline group): no significant difference | pathological injury to the livers and kidneys (mice; 90 d): no significant pathological injury | weight of major organs (mice; 90 d, heart, liver, spleen, kidneys, thymus, brain, testes, lungs, pancreas, stomach, intestine, vs control group): substantially no significant difference | changes of blood glucose per week (mice; 90 d, medium-dosage group (27.6×10^8) vs control saline group): significant difference | changes of blood glucose per week (mice; 90 d, the other groups (low, high dosage) vs control group): no significant difference | level of the bile acid both in serum and liver (mice; 90 d, the other groups vs control group): no significant difference | activity of glutamic oxalacetic transaminase in both serum and liver (mice; 90 d, vs control group): no significant difference | activity of glutamic pyruvate transaminase in both serum and liver (mice; 90 d, vs control group): no significant difference | blood glucose regulation ability (glucose tolerance and insulin tolerance) (mice; 90 d, vs control group): no significant difference | concentration of blood urea nitrogen in serum (mice; 90 d, vs control group): no significant difference | content of creatinine in serum (mice; 90 d, vs control group): no significant difference | content of total protein in both serum and liver (mice; 90 d, vs control group): no significant difference | level of glucose in both serum and liver (mice; 90 d, vs control group): no significant difference | level of the cholesterol in both liver and serum (mice; 90 d, vs control group): no significant difference | level of the triglyceride in both liver and serum (mice; 90 d, vs control group): no significant difference | changes of body weight per week (mice; 90 d, vs control saline group): no significant difference | changes of food intake per week (mice; 90 d, vs control saline group): no significant difference | various blood indicators (mice; 90 d, vs control saline group): no significant difference | death (mice; intragastric 90 consecutive days, high, medium, low dosage (92×10^8, 27.6×10^8, 9.2×10^8 CFU/kg. bw/d)): no death occurs | Serum IL-4 ([2]; APP group 35.00, WT 106.52): 70.42 ± 3.40^c | Serum CCL2 ([2]; APP group 80.13, WT 59.07): 67.74 ± 1.51^b | Serum CXCL1 ([2]; APP group 168.91, WT 14.87): 56.40 ± 2.88^b | Serum IL-10 ([2]; APP group 565.36, WT 2779.61): 2133.04 ± 18947^b
